Test results taken from ChEMBL document CHEMBL3885861, “Open TG-GATES”.

Species on record: Rattus norvegicus
Experiment: Open TG-GATES - Regimen: Single
Format: toxicity, organism-based, Sprague-Dawley
Design: regimen Single, gender Male, age 6 weeks
Conditions: in vivo, po, 10 mg/kg, route gavage, dose level Low; for APTT / Bas / Eos / Fbg / Hb / Ht / Lym / MCH / MCHC / MCV / Mono / Neu / PT / Plat / RBC / Ret / WBC: tissue Blood; for KIDNEY_L / KIDNEY_R / KIDNEY_TOTAL: tissue Kidney; for LIVER: tissue Liver; for A/G / ALP / ALT / AST / BUN / CRE / Ca / Cl / DBIL / GLC / IP / K / LDH / Na / PL / RALB / TBIL / TC / TG / TP / gamma-GTP: tissue Plasma

CCN(CC)N=O [N-NITROSODIETHYLAMINE]
TERMINAL_BW (3 h): 222.2 g | APTT (3 h): 18.5 s | Bas (3 h): 0.4% | Eos (3 h): 0.8% | Fbg (3 h): 221.2 mg/dL | Hb (3 h): 13.4 g/dL | Ht (3 h): 39.5% | Lym (3 h): 74.8% | MCH (3 h): 21.3 pg | MCHC (3 h): 33.9% | MCV (3 h): 62.8 fL | Mono (3 h): 2.2% | Neu (3 h): 21.2% | PT (3 h): 12.3 s | Plat (3 h): 120.1 x10_4/uL | RBC (3 h): 629.8 x10_4/ul | Ret (3 h): 7.4% | WBC (3 h): 85.8 x10_2/uL | KIDNEY_L (3 h): 1 g | KIDNEY_R (3 h): 1 g | KIDNEY_TOTAL (3 h): 2 g | LIVER (3 h): 9.3 g | A/G (3 h): 1.7 | ALP (3 h): 906.2 IU/L | ALT (3 h): 45 IU/L | AST (3 h): 74.4 IU/L | BUN (3 h): 10.8 mg/dL | CRE (3 h): 0.4 mg/dL | Ca (3 h): 10.2 mg/dL | Cl (3 h): 103 meq/L | DBIL (3 h): 0.062 mg/dL | GLC (3 h): 190.2 mg/dL | IP (3 h): 8.8 mg/dL | K (3 h): 3.6 meq/L | LDH (3 h): 194 IU/L | Na (3 h): 141.2 meq/L | PL (3 h): 123.4 mg/dL | RALB (3 h): 3.4 g/dL | TBIL (3 h): 0.1 mg/dL | TC (3 h): 77.4 mg/dL | TG (3 h): 34 mg/dL | TP (3 h): 5.4 g/dL | gamma-GTP (3 h): 1 IU/L | TERMINAL_BW (6 h): 226.2 g | APTT (6 h): 18.6 s | Bas (6 h): 0.6% | Eos (6 h): 1% | Fbg (6 h): 235 mg/dL | Hb (6 h): 13.3 g/dL | Ht (6 h): 39.1% | Lym (6 h): 78% | MCH (6 h): 20.7 pg | MCHC (6 h): 34% | MCV (6 h): 60.9 fL | Mono (6 h): 2.4% | Neu (6 h): 17.4% | PT (6 h): 12.1 s | Plat (6 h): 127.1 x10_4/uL | RBC (6 h): 642.4 x10_4/ul | Ret (6 h): 6.1% | WBC (6 h): 90.2 x10_2/uL | KIDNEY_L (6 h): 1 g | KIDNEY_R (6 h): 1 g | KIDNEY_TOTAL (6 h): 2 g | LIVER (6 h): 10.3 g | A/G (6 h): 1.5 | ALP (6 h): 923.4 IU/L | ALT (6 h): 39 IU/L | AST (6 h): 69 IU/L | BUN (6 h): 14.2 mg/dL | CRE (6 h): 0.4 mg/dL | Ca (6 h): 10.4 mg/dL | Cl (6 h): 103.2 meq/L | DBIL (6 h): 0.078 mg/dL | GLC (6 h): 199.2 mg/dL | IP (6 h): 7.6 mg/dL | K (6 h): 3.7 meq/L | LDH (6 h): 220.8 IU/L | Na (6 h): 140.6 meq/L | PL (6 h): 144 mg/dL | RALB (6 h): 3.3 g/dL | TBIL (6 h): 0.1 mg/dL | TC (6 h): 81 mg/dL | TG (6 h): 62.6 mg/dL | TP (6 h): 5.6 g/dL | gamma-GTP (6 h): 1.2 IU/L | TERMINAL_BW (9 h): 226.3 g | APTT (9 h): 18.1 s | Bas (9 h): 0.8% | Eos (9 h): 1% | Fbg (9 h): 222.4 mg/dL | Hb (9 h): 14 g/dL | Ht (9 h): 40.2% | Lym (9 h): 80.6% | MCH (9 h): 21.7 pg | MCHC (9 h): 34.8% | MCV (9 h): 62.1 fL | Mono (9 h): 2.4% | Neu (9 h): 14.4% | PT (9 h): 12.2 s | Plat (9 h): 123.8 x10_4/uL | RBC (9 h): 647 x10_4/ul | Ret (9 h): 6.7% | WBC (9 h): 100.3 x10_2/uL | KIDNEY_L (9 h): 0.9 g | KIDNEY_R (9 h): 1 g | KIDNEY_TOTAL (9 h): 1.9 g | LIVER (9 h): 10.3 g | A/G (9 h): 1.6 | ALP (9 h): 1025.2 IU/L | ALT (9 h): 38.6 IU/L | AST (9 h): 67.2 IU/L | BUN (9 h): 14.4 mg/dL | CRE (9 h): 0.4 mg/dL | Ca (9 h): 10.7 mg/dL | Cl (9 h): 103.2 meq/L | DBIL (9 h): 0.09 mg/dL | GLC (9 h): 188.4 mg/dL | IP (9 h): 8.3 mg/dL | K (9 h): 3.9 meq/L | LDH (9 h): 169.8 IU/L | Na (9 h): 141.4 meq/L | PL (9 h): 141.4 mg/dL | RALB (9 h): 3.5 g/dL | TBIL (9 h): 0.1 mg/dL | TC (9 h): 76 mg/dL | TG (9 h): 90.4 mg/dL | TP (9 h): 5.7 g/dL | gamma-GTP (9 h): 1.2 IU/L | TERMINAL_BW (24 h): 229.3 g | APTT (24 h): 19.1 s | Bas (24 h): 0.4% | Eos (24 h): 1% | Fbg (24 h): 235.6 mg/dL | Hb (24 h): 13.5 g/dL | Ht (24 h): 39.9% | Lym (24 h): 78.4% | MCH (24 h): 21.2 pg | MCHC (24 h): 33.9% | MCV (24 h): 62.5 fL | Mono (24 h): 3% | Neu (24 h): 16.6% | PT (24 h): 11.9 s | Plat (24 h): 124.7 x10_4/uL | RBC (24 h): 638.2 x10_4/ul | Ret (24 h): 6.6% | WBC (24 h): 79.1 x10_2/uL | KIDNEY_L (24 h): 1 g | KIDNEY_R (24 h): 1 g | KIDNEY_TOTAL (24 h): 2 g | LIVER (24 h): 10.1 g | A/G (24 h): 1.5 | ALP (24 h): 877 IU/L | ALT (24 h): 34.8 IU/L | AST (24 h): 64.4 IU/L | BUN (24 h): 14.4 mg/dL | CRE (24 h): 0.4 mg/dL | Ca (24 h): 10.7 mg/dL | Cl (24 h): 104.6 meq/L | DBIL (24 h): 0.086 mg/dL | GLC (24 h): 202.8 mg/dL | IP (24 h): 9.4 mg/dL | K (24 h): 4 meq/L | LDH (24 h): 208.6 IU/L | Na (24 h): 141.6 meq/L | PL (24 h): 142.6 mg/dL | RALB (24 h): 3.3 g/dL | TBIL (24 h): 0.1 mg/dL | TC (24 h): 73.8 mg/dL | TG (24 h): 86.4 mg/dL | TP (24 h): 5.5 g/dL | gamma-GTP (24 h): 1.4 IU/L
